“Also recorded” adds a separate entry of the source.
How the values were obtained:
Type in all cases: cell-based, Wistar rats
5HT-R = test: FM endocytosis imaging (FEI) of 5-HT-induced endocytosis in DRG neuron
Source text: (§1) Methods of the invention are based on FM endocytosis imaging (FEI). Confocal imaging can be used to measure the endocytosis induced by ligand-receptor binding (LRB). The principles of FM endocytosis imaging (FEI) method are: (i) an extracellular styryl FM dye (e.g., FM2-10) is taken up by the endocytic vesicles; and (ii) the FM molecule becomes 100 times brighter after uptake into vesicles. Thus, after proper stimulation, individual FM-loaded vesicles become visible images by standard confocal microscopy.
(§2) FIG. 2A illustrate a method of the invention. […] The ligand binds to the receptor and triggers receptor internalization (endocytosis). In the endocytosis process, the FM dye is internalized in endocytic vesicles. […]
(§3) The dye-containing vesicles in the cell may be imaged with a confocal fluorescence microscope, such as Zeiss LSM 510 (Germany). […]
(§4) The FM spots in each OS can be counted manually or automatically, e.g., with the aid of a software. […] Thus, the pixel sizes of the images may be properly adjusted so that FM spots corresponding to the vesicles are counted. One of ordinary skill in the art would appreciate that the images may be manipulated with techniques known in the art, e.g., smoothing, and the dynamic range (intensity range) may be adjusted so that majority (e.g., >90%) of the fluorescent spots are counted, with minimum interference from background noises. […]

DRG = test: Differential FEI labeling with FM2-10 and FM4-64 and KCl discharge; details: for numbers of endocytic vesicles induced by the two ligands: sequential ADP and 5-HT incubation with two FM dyes in the same cell, FIG. 8D
Experimental: This capability, for example, may be used to probe the vesicle sorting or trafficking inside the cells. It is known that GPCRs are active cargos for the internalized vesicles, and each different type of GPCR vesicles may have its own sorting pathway. To investigate different sorting paths of vesicles internalized under different conditions (time, ligand, etc.), vesicles can be labeled with FM dyes of different colors in the same cell.
As shown in the left panel, the cells in a dish is incubated with ADP and FM2-10 (green fluorophore). Then, the dye and ADP are washed away and a second incubation is performed with 5-HT and FM4-64 (red fluorophone). The cells are again washed and monitored with a confocal microscope, as illustrated in the right panel. Both FM2-10 and FM4-64 can be excited with a light at 488 nm. The emission of FM2-10 can be monitored at 530-600 nm, while the emission of FM4-64 can be monitored at >635 nm.
To test whether there is a common sorting pathways for the ADP-induced and 5-HT-induced endocytic vesicles, the cell was treated with 80 mM KCL for three minutes.

P2Y = test: FM endocytosis imaging (FEI) of ADP-induced endocytosis in single DRG neuron
Source text: as §1
FIG. 2A illustrate a method of the invention. […] The ligand binds to the receptor and triggers receptor internalization (endocytosis). In the endocytosis process, the FM dye is internalized in endocytic vesicles. Subsequently, the excess FM-dye may be washed away, leaving behind cells loaded with dye filled vesicles that are observable due to the fluorescent dye. Using this procedure, single vesicles in a single cell can be visualized by FM imaging. Note that while this example uses an FM dye, other suitable dyes may also be used without departing from the scope of the invention. […] Therefore, some methods of the invention may not include the washing step.
When a confocal microscope is used, the images may be takes in different optical slices (OSs) based on different focal depth. […] The data can be observed as the distribution of FM spots (individual vesicles) in each OS or as a global view, which is a projection overlaying the FM images from different OSs. An advantage of viewing the individual OS is the ability to track the location of the endocytic vesicles within the cell. This would permit studies of vesicle trafficking inside the cells. The advantage of the global view is the total number of vesicles are observed and, therefore, it provides a maximum sensitivity for assay use. For example, the global view may be used to monitor LRB events as a function of time—e.g., in real-time monitoring. […]
as §3

DRG neuron = test: Time-resolved FEI recording (FIF recording)
Source text: Methods of the invention, as noted above, can provide images of endocytic vesicles with relative ease. Thus, these methods for detecting LRB-induced endocytosis can be used in real time to monitor the endocytosis processes. […] In real-time applications, the FEI methods described above may be modified as follows to provide better FIF results: (i) the spatial resolution can be reduced, i.e., OS thickness increased, to increase detection sensitivity; (ii) the confocal scan can be made at a fixed z-position (normally near the middle of the cell); and (iii) cell images can be obtained in the presence of extracellular FM dye (i.e., no need to wash away the dye outside the cells). Under these conditions, FIF recording can rapidly acquire many x-y images of the cell after ligand binding in order to monitor the LRB induced events in real time.
FIG. 7A illustrates a setup for performing a real-time recording of LRB-induced events. As illustrated, the cell is bathed in an ES solution containing a fluorescent dye (e.g., FM2-10), and the OS is selected to a thickness of about […] to have a better sensitivity. […] This is to provide background readings before the ligand is added. From image frame K+1 to image frame m (i.e., from tk+1 to tm), the cell is incubated with the ligand (ADP) in the ES solution. […]
The fluorescence intensity is proportional to the total number of endocytic vesicles. […]

DRG cells = test: Multi-well (2×2) FEI protocol; details: 3 minutes, FIG. 9C
Experimental: FIGS. 9A-9B illustrate a method of the invention that could be used for high throughput evaluation of LRB-induced endocytosis in a multi-well (here 2×2) format. The multi-well plate is the same as a standard cell culture plate, except that a 0.17 mm-thick glass cover-slip constitutes part of the bottom in each well. In this example, single DRG cells were plated on the cover-slips in the wells.
Well (1,1) is incubated with ES and FM, without any ligand. Well (1,2) is incubated with 80 mM KCl and FM. Well (2,1) is incubated with 0.1 mM ADP and FM. Well (2,2) is incubated with ADP, Suramin, and FM. The incubations are all performed for 3 minutes.
Each well was scanned in sequence to obtain the images shown in FIG. 9B, and the endocytic signal (FM spots/cell) were analyzed and presented in histograms (FIG. 9C). […] Within each column, the top image is a transmission microscopy image, showing the cells in the well. The cell bracketed by the square in each well is chosen for image analysis.
The selected cells are scanned for FM images of single OSs (middle image) as well as the global image (bottom image) in each cell (FIG. 9B).

δ-opioid-DOR = target: T1, δ-opioid-DOR (Rattus norvegicus, UniProt P33533)
T1 construct: endogenous in cells; host or cells: freshly dissociated small DRG neurons of Wistar rats

[1] = target: T2, receptor of the tyrosine kinase (RTK) family (Rattus norvegicus, UniProt P35739); test: FM endocytosis imaging (FEI) of NGF-induced endocytosis in DRG neuron; details: NGF 50 ng/ml
T2 construct: endogenous in cells; host or cells: freshly dissociated small DRG neurons of Wistar rats
Source text: as §1, §2, §3, §4

T1 sequence (P33533 whole entry): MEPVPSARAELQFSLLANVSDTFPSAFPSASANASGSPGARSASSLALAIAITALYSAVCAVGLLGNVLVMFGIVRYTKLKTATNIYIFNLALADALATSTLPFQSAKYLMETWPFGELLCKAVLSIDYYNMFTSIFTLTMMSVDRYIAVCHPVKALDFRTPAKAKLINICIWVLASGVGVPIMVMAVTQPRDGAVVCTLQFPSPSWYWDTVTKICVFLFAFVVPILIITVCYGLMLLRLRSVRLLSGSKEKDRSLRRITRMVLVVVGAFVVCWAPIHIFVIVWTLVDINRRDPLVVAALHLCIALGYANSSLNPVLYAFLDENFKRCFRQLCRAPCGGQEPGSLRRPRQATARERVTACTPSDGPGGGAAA
T2 sequence (P35739 33-799): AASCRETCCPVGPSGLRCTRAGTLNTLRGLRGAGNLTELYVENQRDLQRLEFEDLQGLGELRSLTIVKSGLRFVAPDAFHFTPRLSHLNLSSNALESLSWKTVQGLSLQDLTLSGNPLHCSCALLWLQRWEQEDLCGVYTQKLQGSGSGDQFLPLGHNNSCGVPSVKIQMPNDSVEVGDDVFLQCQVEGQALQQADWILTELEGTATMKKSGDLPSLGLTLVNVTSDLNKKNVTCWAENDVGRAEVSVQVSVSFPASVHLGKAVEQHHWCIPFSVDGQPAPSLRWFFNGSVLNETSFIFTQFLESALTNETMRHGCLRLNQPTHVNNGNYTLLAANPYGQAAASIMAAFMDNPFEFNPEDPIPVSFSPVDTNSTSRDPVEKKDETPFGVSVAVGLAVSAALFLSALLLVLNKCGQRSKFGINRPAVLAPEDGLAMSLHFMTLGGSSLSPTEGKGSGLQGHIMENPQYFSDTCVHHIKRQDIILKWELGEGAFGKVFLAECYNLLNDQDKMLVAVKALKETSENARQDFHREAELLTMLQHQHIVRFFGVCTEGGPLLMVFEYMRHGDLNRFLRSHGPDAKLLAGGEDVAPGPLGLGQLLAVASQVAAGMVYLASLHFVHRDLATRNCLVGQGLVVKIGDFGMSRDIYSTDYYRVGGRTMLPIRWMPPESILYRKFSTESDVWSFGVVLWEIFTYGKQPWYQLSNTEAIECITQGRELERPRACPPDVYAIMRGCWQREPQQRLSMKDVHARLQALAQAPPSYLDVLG

NCCc1c[nH]c2ccc(O)cc12 [5-HT, 5-hydroxytryptamine]
endocytic vesicles (FM spots) (5HT-R; 5-HT 0.1 mM vs control incubated with ES 3 minutes): substantial increases
number of FM spots relative to those induced by AR, GABAB, and mAChR (5HT-R; ligands separately introduced, FIG. 6B): 2-3 times
numbers of endocytic vesicles induced by the two ligands (DRG): similar

Nc1ncnc2c1ncn2[C@@H]1O[C@H](COP(=O)(O)OP(=O)(O)O)[C@@H](O)[C@H]1O [ADP]
distribution of endocytic vesicles, medulla compared with periphery (P2Y; ADP-induced vesicles in DRG neuron, histogram FIG. 3C): Almost twice as many
number of FM spots relative to those induced by AR, GABAB, and mAChR (P2Y; DRG neuron, ligands separately introduced, FIG. 6B): 2-3 times
number of FM spots (endocytic vesicles) (P2Y; FM+ADP 3 min vs FM+ES control 3 min, single DRG neuron, FIG. 3A/3B): increased dramatically; also recorded: dramatic increase
number of fluorescent spots (endocytic vesicles) in the cell (DRG neuron; image at t=tm (ADP) vs t=tk (control), DRG neuron): substantial increase
fluorescence intensity (number of endocytic vesicles) inside the cell (DRG neuron; time course, average of 21 experiments, extracellular FM dye present): significantly increases
numbers of endocytic vesicles induced by the two ligands (DRG): similar
endocytosis (FM spots/cell) (DRG cells; 0.1 mM ADP and FM): induced significant endocytosis

[Cl-].[K+] [KCl]
green/5HT-R vesicles discharged (DRG; 80 mM KCL for three minutes, 5-HT-induced vesicles, FIG. 8E): about 37%
red/P2Y vesicles discharged (DRG; 80 mM KCL for three minutes, ADP-induced vesicles, FIG. 8E): about 43%
vesicles lost after the KCl treatment (DRG; 80 mM KCL for three minutes, FIG. 8C): significant amount of vesicles were lost

CC(C)[C@H](NC(=O)[C@H](CCC(=O)O)NC(=O)[C@H](Cc1ccccc1)NC(=O)[C@@H](C)NC(=O)[C@@H](N)Cc1ccc(O)cc1)C(=O)N[C@H](C(=O)NCC(=O)O)C(C)C [deltorphin]
number of FM spots relative to those induced by AR, GABAB, and mAChR (δ-opioid-DOR): 2-3 times

Cc1ccc(C(=O)Nc2ccc(S(=O)(=O)O)c3cc(S(=O)(=O)O)cc(S(=O)(=O)O)c23)cc1NC(=O)c1cccc(NC(=O)Nc2cccc(C(=O)Nc3cc(C(=O)Nc4ccc(S(=O)(=O)O)c5cc(S(=O)(=O)O)cc(S(=O)(=O)O)c45)ccc3C)c2)c1 [suramin]
inhibition of ADP-induced endocytosis (FM spots/cell) (DRG cells; ADP, Suramin, and FM): inhibited

nerve growth factor [NGF]
endocytic vesicles (FM spots) [1]: substantial increase
